Measurements: article PMC11859184, “Synthesis and Evaluation of ^68Ga- and ^177Lu-Labeled [diF-Pro^14]Bombesin(6−14) Analogs for Detection and Radioligand Therapy of Gastrin-Releasing Peptide Receptor-Expressing Cancer” (Pharmaceuticals, 2025)

Legend:
GRPR = target: T1, GRPR (Homo sapiens, UniProt P30550); experiment: Fluorometric intracellular calcium release assay using PC-3 cells; assay type: cell-based; details: for intracellular calcium release: 50 nM ligand, n = 4
T1 construct: host or cells: PC-3 cells
T1 sequence (P30550 whole entry): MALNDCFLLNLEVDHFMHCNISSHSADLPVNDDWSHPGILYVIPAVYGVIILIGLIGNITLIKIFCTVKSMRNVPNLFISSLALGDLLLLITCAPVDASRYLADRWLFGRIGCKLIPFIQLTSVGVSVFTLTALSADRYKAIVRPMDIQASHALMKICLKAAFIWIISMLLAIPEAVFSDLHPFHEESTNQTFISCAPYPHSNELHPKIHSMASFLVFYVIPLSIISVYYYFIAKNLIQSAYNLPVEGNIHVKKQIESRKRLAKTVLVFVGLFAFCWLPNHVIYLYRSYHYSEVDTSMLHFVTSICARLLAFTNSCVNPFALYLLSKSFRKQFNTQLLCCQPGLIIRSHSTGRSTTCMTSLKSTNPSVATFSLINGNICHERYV
Experimental: The agonist/antagonist characteristics of LW02060, Ga-LW02060, Lu-LW02060, LW02080, Ga-LW02080, and Lu-LW02080 were determined following published procedures. The PC-3 cells were obtained from ATCC (via Cedarlane, Burlington, ON, Canada). A 96-well clear bottom black plate was seeded with 5 × 10^4 PC-3 cells in 100 μL growth media per well 24 h before the assay. The loading buffer (100 μL/well) containing a calcium-sensitive dye (FLIPR Calcium 6 assay kit from Molecular Devices, San Jose, CA, USA) was added into the 96-well plate, followed by 1 h incubation at 37 °C. The plate was then transferred into a FlexStation 3 microplate reader (Molecular Devices, San Jose, CA, USA). LW02060 (50 nM), Ga-LW02060 (50 nM), Lu-LW02060 (50 nM), LW02080 (50 nM), Ga-LW02080 (50 nM), Lu-LW02080 (50 nM), [D-Phe^6,Leu-NHEt^13,des-Met^14]Bombesin(6–14) (50 nM, antagonist control), bombesin (50 nM, agonist control), adenosine triphosphate (ATP, 50 nM, positive control), or DPBS (blank control) was added, and the fluorescent signals were measured for 2 min (λEx = 485 nm; λEm = 525 nm; n = 4). The relative fluorescent units (RFU = max − min) were calculated to determine the agonistic/antagonistic characteristics of LW02060, Ga-LW02060, Lu-LW02060, LW02080, Ga-LW02080, and Lu-LW02080, respectively.

PC-3 tumor-bearing mice [1] = experiment: Ex vivo biodistribution of 68Ga-labeled tracers in PC-3 tumor-bearing mice; details: 1 h pi; for reduction of average tumor uptake by co-injection of blocking agent: 100 µg blocking agent
Experimental: PET/CT imaging and biodistribution studies were conducted using male NOD.Cg-Rag1^tm1Mom Il2rg^tm1Wjl/SzJ (NRG) mice following previously published procedures. The studies were carried out in compliance with the guidelines established by the Canadian Council on Animal Care and approved by Animal Ethics Committee of the University of British Columbia (protocol number A20-0113, approved on 30 September 2022). The mice were anaesthetized and subcutaneously implanted with 5 × 10^6 PC-3 cells (100 µL; 1:1 PBS/Matrigel) behind the left shoulder. PET/CT imaging and biodistribution studies were performed once the tumors reached a diameter of 5–8 mm, typically after approximately 4 weeks of growth.
For ex vivo biodistribution studies, the mice were injected with the ^68Ga-labeled tracer (2–4 MBq) via a lateral caudal tail vein. For blocking [^68Ga]Ga-LW02060, the mice were co-injected with 100 μg of [D-Phe^6,Leu-NHEt^13,des-Met^14]Bombesin(6–14). For blocking [^68Ga]Ga-LW02080, the mice were co-injected with 100 μg of its nonradioactive standard Ga-LW02080. At 1 h pi, the mice were euthanized by CO2 inhalation. Blood and organs/tissues of interest were collected, weighed, and counted using a gamma counter.

[2] = In vivo stability study (radio-HPLC of plasma and urine); details: NRG mice, 15 min pi; for remaining intact in plasma: n = 3
Experimental: For in vivo stability studies, [^68Ga]Ga-LW02060 or [^68Ga]Ga -LW02080 (5.23–12.9 MBq) was injected into healthy male NRG mice (n = 3) tough a lateral caudal tail vein. At 15 min pi, mice were anaesthetized and euthanized, followed by collection of the urine and blood samples. The plasma was extracted from whole blood by adding an equal volume of CH3CN, followed by vortexing, centrifugation, and collection of the supernatant. The plasma and urine samples were analyzed via radio-HPLC.

PC-3 tumor-bearing mice [3] = experiment: Ex vivo biodistribution of 177Lu-labeled ligands in PC-3 tumor-bearing mice; details: 1 h pi, 100 µg [D-Phe6,Leu-NHEt13,des-Met14]Bombesin(6-14)
Experimental: SPECT/CT imaging was conducted using an MI Labs (Houten, The Netherlands) U-SPECT-II/CT scanner with a custom-made ultra-high sensitivity big mouse collimator (2 mm pinhole size) following published procedure. The experiments were obtained in accordance with the same protocol established in the PET/CT imaging and ex vivo biodistributions section. The mice were used for SPECT/CT imaging and ex vivo biodistributions studies once the tumors reached a diameter of 5–8 mm. PC-3 tumor-bearing mice were sedated (2.5% isoflurane in O2) and injected with 31.4–36.9 MBq of the ^177Lu-labeled ligand through a lateral caudal tail vein. The mouse was imaged at 1, 4, 24, 72, and 120 h pi. At each time point, a 5 min CT scan was performed with 615 μA and 60 kV parameters for localization and attenuation, followed by two 30 min static SPECT scans in list mode with an energy window centered around 208 keV. The U-SPECT II software was used to reconstruct data, and the images were decay corrected to the time of injection with PMOD v 3.402 (PMOD Technologies GmbH, Fallanden, Switzerland).
For ex vivo biodistribution studies, the mice were injected with ~3–5 MBq of the ^177Lu-labeled ligand (n = 5). At 1, 4, 24, 72, and 120 h post-injection, the mice were anesthetized with 2% isoflurane, euthanized by CO2 inhalation, and the tissues/organs of interest were […] for radioactivity counting. The blocking study was performed at 1 h pi via co-injection of the ^177Lu-labeled ligand with 100 μg of [D-Phe^6,Leu-NHEt^13,des-Met^14]Bombesin(6–14).

## Nc1ncnc2c1ncn2[C@@H]1O[C@H](COP(=O)(O)OP(=O)(O)OP(=O)(O)O)[C@@H](O)[C@H]1O [ATP, adenosine triphosphate, reference compound]
GRPR
  intracellular calcium release: 286 ± 9.44 RFU

## CC(C)C[C@H](NC(=O)[C@H](Cc1cnc[nH]1)N(C)C(=O)CNC(=O)[C@@H](NC(=O)[C@H](C)NC(=O)[C@H](Cc1c[nH]c2ccccc12)NC(=O)[C@H](CCC(N)=O)NC(=O)[C@@H](Cc1ccccc1)NC(=O)CN1CCC(NC(=O)CN2CCN(CC(=O)O)CCN(CC(=O)O)CCN(CC(=O)O)CC2)CC1)C(C)(C)C)C(=O)N1CC(F)(F)C[C@H]1C(N)=O [[^68Ga]Ga-LW02060] [metal not drawn]
PC-3 tumor-bearing mice [1]
  tumor uptake relative to [68Ga]Ga-LW02080: 2.3 fold
  tumor uptake relative to previously reported [68Ga]Ga-LW02056: 1.9 fold
  uptake in all other collected organs/tissues (except tumor xenografts and kidneys): lower than 1 %ID/g
  reduction of average tumor uptake by co-injection of blocking agent: 64%
[2]
  intact tracer in urine: No intact tracer was detected
  remaining intact in plasma: > 99%

## CC(C)C[C@@H](CN1CC(F)(F)C[C@H]1C(N)=O)NC(=O)[C@H](Cc1c[nH]cn1)NC(=O)CN(C)C(=O)[C@@H](NC(=O)[C@H](C)NC(=O)[C@H](Cc1c[nH]c2ccccc12)NC(=O)[C@H](CCC(N)=O)NC(=O)[C@@H](Cc1ccccc1)NC(=O)CN1CCC(NC(=O)CN2CCN(CC(=O)O)CCN(CC(=O)O)CCN(CC(=O)O)CC2)CC1)C(C)C [[^68Ga]Ga-LW02080] [metal not drawn]
PC-3 tumor-bearing mice [1]
  uptake in all other collected organs/tissues (except tumor xenografts and kidneys): lower than 1 %ID/g
  reduction of average tumor uptake by co-injection of blocking agent: 77%
[2]
  intact tracer in urine: No intact tracer was detected
  remaining intact in plasma: 87.4 ± 5.34%

## CC(C)C[C@H](NC(=O)[C@H](Cc1cnc[nH]1)N(C)C(=O)CNC(=O)[C@@H](NC(=O)[C@H](C)NC(=O)[C@H](Cc1c[nH]c2ccccc12)NC(=O)[C@H](CCC(N)=O)NC(=O)[C@@H](Cc1ccccc1)NC(=O)CN1CCC(NC(=O)CN2CCN(CC(=O)O)CCN(CC(=O)O)CCN(CC(=O)O)CC2)CC1)C(C)(C)C)C(=O)N1CC(F)(F)C[C@H]1C(N)=O [[^177Lu]Lu-LW02060] [metal not drawn]
PC-3 tumor-bearing mice [3]
  reduction of pancreas uptake by co-injection of blocking agent: 81%
  reduction of small intestine uptake by co-injection of blocking agent: 66%
  reduction of stomach uptake by co-injection of blocking agent: 72%
  reduction of tumor uptake by co-injection of blocking agent: 66%

## CC(C)C[C@@H](CN1CC(F)(F)C[C@H]1C(N)=O)NC(=O)[C@H](Cc1c[nH]cn1)NC(=O)CN(C)C(=O)[C@@H](NC(=O)[C@H](C)NC(=O)[C@H](Cc1c[nH]c2ccccc12)NC(=O)[C@H](CCC(N)=O)NC(=O)[C@@H](Cc1ccccc1)NC(=O)CN1CCC(NC(=O)CN2CCN(CC(=O)O)CCN(CC(=O)O)CCN(CC(=O)O)CC2)CC1)C(C)C [[^177Lu]Lu-LW02080] [metal not drawn]
PC-3 tumor-bearing mice [3]
  reduction of tumor uptake by co-injection of blocking agent: 64%

## DOTA-Pip-[D-Phe^6,NMe-Gly^11,Leu^13(ψ)diF-Pro^14]Bombesin(6–14) [LW02080]
GRPR
  agonist/antagonist characteristics: GRPR antagonists
  intracellular calcium release: 11.4 ± 0.32 RFU

## DOTA-Pip-[D-Phe^6,Tle^10,NMe-His^12,diF-Pro^14]Bombesin(6–14) [LW02060]
GRPR
  agonist/antagonist characteristics: GRPR agonists
  intracellular calcium release: 377 ± 41.9 RFU

## [D-Phe^6,Leu-NHEt^13,des-Met^14]Bombesin(6–14) [reference compound]
GRPR
  intracellular calcium release: 16.6 ± 3.84 RFU

## bombesin [reference compound]
GRPR
  intracellular calcium release: 371 ± 17.9 RFU
